Assay results taken from patent US6355799B1, “Substituted benzene compounds, process for their preparation, and herbicidal and defoliant compositions containing them” (ISK Americas Incorporated, priority 1997, dated 2002).

Tests used:
Format in all cases: in vivo
[1] = test system: sicklepod (Cassia obtusifolia, CASOB); assay: Post-emerge test, greenhouse herbicide activity screening; settings: post-emerge, 14 days after application, rating scale 0-100
How it was run: (§1)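 Compounds in acetone were track-sprayed at 15-1000 g ai/ha (187 l/ha) on sandy loam pots: pre-emerge one day after seeding, post-emerge at 2-3 leaf stage with 0.25% v/v non-ionic surfactant. Phytotoxicity was rated 14 days later on a 0 (no damage) to 100 (complete death) scale.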

[2] = test system: ivyleaf morningglory (Ipomoea hederacea, IPOHE); assay: as above; settings: post-emerge, 14 days after application, rating scale 0-100
How it was run: as §1

[3] = test system: redroot pigweed (Amaranthus retroflexus, AMARE); assay: as above; settings: post-emerge, 14 days after application
How it was run: as §1

[4] = test system: barnyardgrass (Echinochloa crus-galli, ECHCG); assay: as above; settings: post-emerge, 14 days after application, rating scale 0-100
How it was run: as §1

[5] = test system: johnsongrass (Sorghum halepense, SORHA); assay: as above; settings: post-emerge, 14 days after application, rating scale 0-100
How it was run: as §1

[6] = test system: lambsquarters (Chenopodium album, CHEAL); assay: as above; settings: post-emerge, 14 days after application, rating scale 0-100
How it was run: as §1

[7] = test system: large crabgrass (Digitaria sanguinalis, DIGSA); assay: as above; settings: post-emerge, 14 days after application, rating scale 0-100
How it was run: as §1

[8] = test system: green foxtail (Setaria viridis, SETVI); assay: as above; settings: post-emerge, 14 days after application, rating scale 0-100
How it was run: as §1

[9] = test system: velvetleaf (Abutilon theophrasti, ABUTH); assay: as above; settings: post-emerge, 14 days after application, rating scale 0-100
How it was run: as §1

[10] = test system: field corn (Zea mays L., var. Dekalb 535, CORN); assay: Post-emerge test, crop safety; settings: post-emerge, 14 days after application, rating scale 0-100
How it was run: (§2)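 Plants grown in 10 cm pots of sandy loam mix received acetone-dissolved compounds through a moving flat-fan nozzle. Doses ranged from 15 to 1000 g ai/ha. Pre-emerge pots were seeded one day earlier, post-emerge pots 8–21 days earlier. Fourteen days on, each pot was graded 0–100 for damage.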

[11] = test system: upland rice (Oryza sp., var. Tebonnet, RICE); assay: Post-emerge test, crop safety; settings: post-emerge, 14 days after application, rating scale 0-100
How it was run: as §2

[12] = test system: field corn (Zea mays L., var. Dekalb 535, CORN); assay: Pre-emerge test, crop safety; settings: pre-emerge, 14 days after application, rating scale 0-100
How it was run: (§3)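 Applied at 15–1000 g ai/ha from acetone in 187 l/ha spray volume. Post-emergence applications included 0.25% v/v non-ionic surfactant and reached plants sown 8–21 days before. Pre-emergence applications were incorporated by surface watering. Efficacy or crop damage was rated on a 0–100 scale after 14 days.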

[13] = test system: upland rice (Oryza sp., var. Tebonnet, RICE); assay: Pre-emerge test, crop safety; settings: pre-emerge, 14 days after application, rating scale 0-100
How it was run: as §3

[14] = test system: redroot pigweed (Amaranthus retroflexus, AMARE); assay: Pre-emerge test, greenhouse herbicide activity screening; settings: pre-emerge, 14 days after application, rating scale 0-100
How it was run: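 Compounds in acetone were track-sprayed at 187 l/ha, 15–1000 g ai/ha, onto sandy loam pots. Pre-emerge seeds were sown one day before spraying, with surface watering afterwards. Post-emerge plants were at the 2–3 leaf stage and sprayed with 0.25% v/v non-ionic surfactant. Injury was rated 0–100 at 14 days.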

[15] = test system: sicklepod (Cassia obtusifolia, CASOB); assay: as above; settings: pre-emerge, 14 days after application, rating scale 0-100
How it was run: (§4)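 Rating: 0–100 visual injury, 14 DAA. Application: acetone, 187 l/ha, 15–1000 g ai/ha, flat-fan track sprayer with nozzle 40–45 cm above soil or canopy. Post-emerge runs used 0.25% v/v surfactant on 2–3 leaf plants.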

[16] = test system: ivyleaf morningglory (Ipomoea hederacea, IPOHE); assay: as above; settings: pre-emerge, 14 days after application, rating scale 0-100
How it was run: as §4

[17] = test system: barnyardgrass (Echinochloa crus-galli, ECHCG); assay: as above; settings: pre-emerge, 14 days after application, rating scale 0-100
How it was run: as §4

[18] = test system: johnsongrass (Sorghum halepense, SORHA); assay: as above; settings: pre-emerge, 14 days after application, rating scale 0-100
How it was run: as §4

[19] = test system: common ragweed (Ambrosia artemisizfolia L., AMBEL); assay: as above; settings: pre-emerge, 14 days after application, rating scale 0-100
How it was run: as §4

[20] = test system: lambsquarters (Chenopodium album, CHEAL); assay: as above; settings: pre-emerge, 14 days after application, rating scale 0-100
How it was run: as §4

[21] = test system: large crabgrass (Digitaria sanguinalis, DIGSA); assay: as above; settings: pre-emerge, 14 days after application, rating scale 0-100
How it was run: as §4

[22] = test system: green foxtail (Setaria viridis, SETVI); assay: as above; settings: pre-emerge, 14 days after application, rating scale 0-100
How it was run: as §4

[23] = test system: velvetleaf (Abutilon theophrasti, ABUTH); assay: as above; settings: pre-emerge, 14 days after application, rating scale 0-100
How it was run: as §4

For `CCCOC(=O)C(Cl)Cc1c(OCC)c(Cl)cc(F)c1-n1c(=O)cc(C(F)(F)F)n(C)c1=O` (stereo not shown) [14-65], the “Post-emerge Herbicidal Activity CASOB (phytotoxicity rating)” value ([1]; 63 g ai/ha) was 90, the “Post-emerge Herbicidal Activity CASOB (phytotoxicity rating)” value ([1]; 250 g ai/ha) was 100 and the “Post-emerge Herbicidal Activity IPOHE (phytotoxicity rating)” value ([2]; 63 g ai/ha) was 50. The “Post-emerge Herbicidal Activity IPOHE (phytotoxicity rating)” value ([2]; 250 g ai/ha) was 70, the “Post-emerge Herbicidal Activity AMARE (phytotoxicity rating)” value ([3]; 63 g ai/ha, rating scale 0-100 (0 no damage, 100 complete death)) was 100 and the “Post-emerge Herbicidal Activity AMARE (phytotoxicity rating)” value ([3]; 250 g ai/ha, rating scale 0-100) was 100. The “Post-emerge Herbicidal Activity ECHCG (phytotoxicity rating)” value ([4]; 63 g ai/ha) was 100, the “Post-emerge Herbicidal Activity ECHCG (phytotoxicity rating)” value ([4]; 250 g ai/ha) was 100 and the “Post-emerge Herbicidal Activity SORHA (phytotoxicity rating)” value ([5]; 63 g ai/ha) was 30. The “Post-emerge Herbicidal Activity SORHA (phytotoxicity rating)” value ([5]; 250 g ai/ha) was 60, the “Post-emerge Herbicidal Activity CHEAL (phytotoxicity rating)” value ([6]; 63 g ai/ha) was 90 and the “Post-emerge Herbicidal Activity CHEAL (phytotoxicity rating)” value ([6]; 250 g ai/ha) was 100. The “Post-emerge Herbicidal Activity DIGSA (phytotoxicity rating)” value ([7]; 63 g ai/ha) was 99, the “Post-emerge Herbicidal Activity DIGSA (phytotoxicity rating)” value ([7]; 250 g ai/ha) was 100 and the “Post-emerge Herbicidal Activity SETVI (phytotoxicity rating)” value ([8]; 63 g ai/ha) was 100. For the same molecule, the “Post-emerge Herbicidal Activity SETVI (phytotoxicity rating)” value ([8]; 250 g ai/ha) was 100, the “Post-emerge Herbicidal Activity ABUTH (phytotoxicity rating)” value ([9]; 63 g ai/ha) was 100 and the “Post-emerge Herbicidal Activity ABUTH (phytotoxicity rating)” value ([9]; 250 g ai/ha) was 100. The “Post-emerge Herbicidal Activity CORN (crop damage rating)” value ([10]; 63 g ai/ha) was 0, the “Post-emerge Herbicidal Activity CORN (crop damage rating)” value ([10]; 250 g ai/ha) was 50 and the “Post-emerge Herbicidal Activity RICE (crop damage rating)” value ([11]; 63 g ai/ha) was 0. The “Post-emerge Herbicidal Activity RICE (crop damage rating)” value ([11]; 250 g ai/ha) was 10, the “phytotoxicity rating CORN” value ([12]; 63 g ai/ha) was 0 and the “phytotoxicity rating CORN” value ([12]; 250 g ai/ha) was 0. The “phytotoxicity rating RICE” value ([13]; 63 g ai/ha) was 0, the “phytotoxicity rating RICE” value ([13]; 250 g ai/ha) was 0 and the “phytotoxicity rating AMARE” value ([14]; 63 g ai/ha) was 100. The “phytotoxicity rating AMARE” value ([14]; 250 g ai/ha) was 100, the “phytotoxicity rating CASOB” value ([15]; 63 g ai/ha) was 40 and the “phytotoxicity rating CASOB” value ([15]; 250 g ai/ha) was 80. For the same molecule, the “phytotoxicity rating IPOHE” value ([16]; 63 g ai/ha) was 40, the “phytotoxicity rating IPOHE” value ([16]; 250 g ai/ha) was 70 and the “phytotoxicity rating ECHCG” value ([17]; 63 g ai/ha) was 0. For the same molecule, the “phytotoxicity rating ECHCG” value ([17]; 250 g ai/ha) was 80, the “phytotoxicity rating SORHA” value ([18]; 63 g ai/ha) was 20 and the “phytotoxicity rating SORHA” value ([18]; 250 g ai/ha) was 20. The “phytotoxicity rating AMBEL” value ([19]; 63 g ai/ha) was 100, the “phytotoxicity rating AMBEL” value ([19]; 250 g ai/ha) was 70 and the “phytotoxicity rating CHEAL” value ([20]; 63 g ai/ha) was 60. The “phytotoxicity rating CHEAL” value ([20]; 250 g ai/ha) was 100, the “phytotoxicity rating DIGSA” value ([21]; 63 g ai/ha) was 90 and the “phytotoxicity rating DIGSA” value ([21]; 250 g ai/ha) was 100. The “phytotoxicity rating SETVI” value ([22]; 63 g ai/ha) was 20, the “phytotoxicity rating SETVI” value ([22]; 250 g ai/ha) was 90 and the “phytotoxicity rating ABUTH” value ([23]; 63 g ai/ha) was 90. The “phytotoxicity rating ABUTH” value ([23]; 250 g ai/ha) was 100.
